Activity calls are given as the source filed them.
Legend:
Format in all cases: functional
HCT-116 = test: Antiproliferative activity against human HCT116 cells at 10 uM assessed as cell growth inhibition relative to control
COLO 205 = test: Antiproliferative activity against human COLO205 cells at 10 uM assessed as cell growth inhibition relative to control
Malme-3M = test: Antiproliferative activity against human MALME-3M cells at 10 uM assessed as cell growth inhibition relative to control
SK-MEL-28 = test: Antiproliferative activity against human SK-MEL-28 cells at 10 uM assessed as cell growth inhibition relative to control
SNB-19 = test: Antiproliferative activity against human SNB19 cells at 10 uM assessed as cell growth inhibition relative to control
TK-10 = test: Antiproliferative activity against human TK10 cells at 10 uM assessed as cell growth inhibition relative to control
HCC 2998 = test: Antiproliferative activity against human HCC2998 cells at 10 uM assessed as cell growth inhibition relative to control
SNB-75 = test: Antiproliferative activity against human SNB75 cells at 10 uM assessed as cell growth inhibition relative to control
786-0 = test: Antiproliferative activity against human 786-0 cells at 10 uM assessed as cell growth inhibition relative to control
RXF 393 = test: Antiproliferative activity against human RXF393 cells at 10 uM assessed as cell growth inhibition relative to control
RPMI8266 = test: Antiproliferative activity against human […] cells at 10 uM assessed as cell growth inhibition relative to control
HOP-92 = test: Antiproliferative activity against human HOP92 cells at 10 uM assessed as cell growth inhibition relative to control
SF-539 = test: Antiproliferative activity against human SF539 cells at 10 uM assessed as cell growth inhibition relative to control
M14 = test: Antiproliferative activity against human M14 cells at 10 uM assessed as cell growth inhibition relative to control
SK-OV-3 = test: Antiproliferative activity against human SKOV3 cells at 10 uM assessed as cell growth inhibition relative to control
SF-268 = test: Antiproliferative activity against human SF268 cells at 10 uM assessed as cell growth inhibition relative to control
SW-620 = test: Antiproliferative activity against human SW620 cells at 10 uM assessed as cell growth inhibition relative to control
HOP-62 = test: Antiproliferative activity against human HOP62 cells at 10 uM assessed as cell growth inhibition relative to control
NCI-H23 = test: Antiproliferative activity against human NCI-H23 cells at 10 uM assessed as cell growth inhibition relative to control
BT-549 = test: Antiproliferative activity against human BT549 cells at 10 uM assessed as cell growth inhibition relative to control
MOLT-4 = test: Antiproliferative activity against human MOLT4 cells at 10 uM assessed as cell growth inhibition relative to control
NCI-H522 = test: Antiproliferative activity against human NCI-H522 cells at 10 uM assessed as cell growth inhibition relative to control
HL-60(TB) = test: Antiproliferative activity against human HL-60(TB) cells at 10 uM assessed as cell growth inhibition relative to control
UACC-62 = test: Antiproliferative activity against human UACC62 cells at 10 uM assessed as cell growth inhibition relative to control
SK-MEL-2 = test: Antiproliferative activity against human SK-MEL-2 cells at 10 uM assessed as cell growth inhibition relative to control
UO-31 = test: Antiproliferative activity against human UO31 cells at 10 uM assessed as cell growth inhibition relative to control
A498 = test: Antiproliferative activity against human A498 cells at 10 uM assessed as cell growth inhibition relative to control
EKVX = test: Antiproliferative activity against human EKVX cells at 10 uM assessed as cell growth inhibition relative to control
MDA-MB-231 = test: Antiproliferative activity against human MDA-MB-231 cells at 10 uM assessed as cell growth inhibition relative to control
CCRF-CEM = test: Antiproliferative activity against human CCRF-CEM cells at 10 uM assessed as cell growth inhibition relative to control
OVCAR-8 = test: Antiproliferative activity against human OVCAR8 cells at 10 uM assessed as cell growth inhibition relative to control
MCF7 = test: Antiproliferative activity against human MCF7 cells at 10 uM assessed as cell growth inhibition relative to control
SN12C = test: Antiproliferative activity against human SN12C cells at 10 uM assessed as cell growth inhibition relative to control
U-251 = test: Antiproliferative activity against human U251 cells at 10 uM assessed as cell growth inhibition relative to control
OVCAR-3 = test: Antiproliferative activity against human OVCAR-3 cells at 10 uM assessed as cell growth inhibition relative to control
LOX IMVI = test: Antiproliferative activity against human LOXIMVI cells at 10 uM assessed as cell growth inhibition relative to control
NCI-H460 = test: Antiproliferative activity against human NCI-H460 cells at 10 uM assessed as cell growth inhibition relative to control
DU-145 = test: Antiproliferative activity against human DU145 cells at 10 uM assessed as cell growth inhibition relative to control
OVCAR-4 = test: Antiproliferative activity against human OVCAR4 cells at 10 uM assessed as cell growth inhibition relative to control
IGROV-1 = test: Antiproliferative activity against human IGROV1 cells at 10 uM assessed as cell growth inhibition relative to control
ACHN = test: Antiproliferative activity against human ACHN cells at 10 uM assessed as cell growth inhibition relative to control
CAKI-1 = test: Antiproliferative activity against human Caki1 cells at 10 uM assessed as cell growth inhibition relative to control
KM12 = test: Antiproliferative activity against human KM12 cells at 10 uM assessed as cell growth inhibition relative to control
K562 = test: Antiproliferative activity against human K562 cells at 10 uM assessed as cell growth inhibition relative to control
OVCAR-5 = test: Antiproliferative activity against human OVCAR5 cells at 10 uM assessed as cell growth inhibition relative to control
SF-295 = test: Antiproliferative activity against human SF295 cells at 10 uM assessed as cell growth inhibition relative to control
A549 = test: Antiproliferative activity against human A549 cells at 10 uM assessed as cell growth inhibition relative to control
UACC-257 = test: Antiproliferative activity against human UACC257 cells at 10 uM assessed as cell growth inhibition relative to control
SK-MEL-5 = test: Antiproliferative activity against human SK-MEL-5 cells at 10 uM assessed as cell growth inhibition relative to control
PC-3 = test: Antiproliferative activity against human PC3 cells at 10 uM assessed as cell growth inhibition relative to control
NCI-H322M = test: Antiproliferative activity against human NCI-H322M cells at 10 uM assessed as cell growth inhibition relative to control
HCT-15 = test: Antiproliferative activity against human HCT15 cells at 10 uM assessed as cell growth inhibition relative to control
MDA-MB-468 = test: Antiproliferative activity against human MDA-MB-468 cells at 10 uM assessed as cell growth inhibition relative to control
T47D = test: Antiproliferative activity against human T47D cells at 10 uM assessed as cell growth inhibition relative to control
Hs-578T = test: Antiproliferative activity against human Hs 578T cells at 10 uM assessed as cell growth inhibition relative to control
HT-29 = test: Antiproliferative activity against human HT-29 cells at 10 uM assessed as cell growth inhibition relative to control
NCI-H226 = test: Antiproliferative activity against human NCI-H226 cells at 10 uM assessed as cell growth inhibition relative to control

Measured: growth inhibition (GI)

CNC(=O)NC[C@H]1O[C@@H](n2cnc3c(NC(=O)Nc4ccccc4)ncnc32)[C@@H]2OC(C)(C)O[C@@H]21
inactive: all assays above

Reference: ChEMBL document CHEMBL1154382, “Preliminary SAR analysis of novel antiproliferative N(6),5'-bis-ureidoadenosine derivatives” (2009)
